Measurements: article PMC9102668, “Highly Cytotoxic Osmium(II) Compounds and Their Ruthenium(II) Analogues Targeting Ovarian Carcinoma Cell Lines and Evading Cisplatin Resistance Mechanisms” (International Journal of Molecular Sciences, 2022)

Tests used:
[1] = test system: Cisplatin resistant cell lines; assay: Mean IC50 (MTT assay) on Cisplatin resistant cell lines; type: cell-based
Procedure: Thus, it can be concluded that the biological activity is mediated by a longer chain (butoxy) at the meta-position, whereas the ortho- and para-positions are more suitable with a shorter chain (ethoxy). To have a further look at the influence of the different ligand systems and substitution patterns, all β-Hydroxydithiocinnamic acid alkyl esters were tested under same conditions as their derived ruthenium(II) complexes (Figure 5B, Supplementary Table S3). […] All ligands are less cytotoxic than Cisplatin itself and therefore the metal(II) center is necessary for the high cytotoxic activity, what is in clear contrast to the literature for O,S-chelating ruthenium(II) or osmium(II) compounds with thiomaltol ligand [48, 71] but confirmed for Ru(II)/Os(II) compounds with N,N-bidentate glycosyl heterocyclic ligands. This is exemplarily shown by the comparison of mean IC50 values for Cisplatin, L14, and Ru14 (Supplementary Figure S8).
(§1) Ovarian cancer cell lines were cultured under standard conditions (5% CO2, 37 °C, 90% humidity) in RPMI medium supplemented with 10% FCS, 100 U/mL penicillin and 100 µg/mL streptomycin (Life Technologies, Dreieich, Germany). Cisplatin (Sigma, Taufkirchen, Germany) was freshly dissolved at 1 mg/mL in 0.9% NaCl solution and diluted appropriately. New ruthenium(II) complexes and ligands were dissolved in dmso. Platinum-resistant A2780 and SKOV3 cells were established by repeated rounds of 3-day incubations with increasing amounts of Cisplatin starting with 0.1 µM. The concentration was doubled after 3 incubations, interrupted by recovery phases with normal medium. […] Determinations of IC50 values were carried out using the CellTiter96 non-radioactive proliferation assay (MTT assay, Promega, Mannheim, Germany). After seeding 5000 cells per well in a 96-well plate, cells were allowed to attach for 24 h and were incubated for 48 h with different concentrations of the substances ranging from 0 to 500 µM for Ruthenium and 0 to 1000 µM for ligand tests (0, 1, 10, 50, 100, 500, 1000 µm), for Cisplatin from 0 to 100 µM (0.1, 1, 5, 10, 50, 100 µM). Each measurement was done in triplicate and repeated 3 times. The proportion of viable cells was quantified by the MTT assay and after background subtraction relative values compared to the mean of medium controls were calculated. Non-linear regression analyses applying the Hill slope were run in GraphPad 5.0 software.

SKOV3cis = assay: MTT assay (CellTiter96), cytotoxic activity; type: cell-based; settings: for IC50: Cisplatin resistant SKOV3, MTT assay, 48 h incubation; for RF SKOV3 (resistance factor): SKOV3cis vs SKOV3
Procedure: (§2) The biological behaviour of all substances was characterized by their cytotoxic activity against a panel of cell lines enabling an understanding of the structure-activity relationship. Cytotoxic activity was determined on ovarian carcinoma cell lines SKOV3 and A2780 as well as their Cisplatin resistant analogues (SKOV3cis and A2780cis) and the lung carcinoma cell line A549. Due to a low solubility in water, dmso is used as a solvent for the preparation of a dilution series in cell culture experiments. The toxic influence of dmso was determined earlier and experiments were carried out with 0.5% dmso in cell culture media and this concentration was used as reference sample in each MTT assay (details: Section 3). […] Resistance factors (RF) were determined for all substances (for IC50 values and RF of β-Hydroxydithiocinnamic acid esters L1–L18, see Tables S2 and S3, Supplementary part). All investigated ruthenium(II) compounds show lower RF values than Cisplatin on ovarian carcinoma cell lines, ranging from 0.2 to 1.5 (Table 3). Whereas the IC50 values on the non-resistant cell lines are in most cases higher than the IC50 of the reference substance, no increase of IC50 values is observed for the resistant cell lines. Contrary, eight ruthenium complexes show lower IC50 values on SKOV3cis than Cisplatin and four compounds on A2780cis. Thus, it can be concluded that these compounds are able to bypass the Cisplatin resistance mechanism in these cell lines pointing to a different mechanism of action.
as §1

SKOV3 = assay: MTT assay (CellTiter96), cytotoxic activity; type: cell-based; settings: 48 h incubation
Procedure: as §2, §1

A549 = assay: MTT assay (CellTiter96), cytotoxic activity; type: cell-based; settings: lung carcinoma cell line, 48 h incubation
Procedure: as §2, §1

A2780 = assay: MTT assay (CellTiter96), cytotoxic activity; type: cell-based; settings: 48 h incubation
Procedure: as §2, §1

A2780cis = assay: MTT assay (CellTiter96), cytotoxic activity; type: cell-based; settings: for RF A2780 (resistance factor): A2780cis vs A2780; for IC50: Cisplatin resistant A2780, MTT assay, 48 h incubation
Procedure: as §2, §1

[2] = Stability determination via 1H NMR spectroscopy; type: physicochemical
Procedure: To investigate the behaviour of the ruthenium(II) complexes Ru1, Ru3, and Ru8 in solution, we analysed kinetic measurements via ^1H NMR spectroscopy (every 1 h, one spectra). NMR signals and behaviour of the ruthenium and osmium compounds is similar, but osmium(II) compounds show a slower ligand exchange mechanism and a higher stability in general. […] The same measurements were done also with dmso at room temperature. Similar changes in the spectra occur at room temperature and new species are detectable (exemplified for Ru1 in the Supplementary Figure S3). However, slower speciation processes in comparison to 37 °C measurements occur, which is exemplarily represented by the disappearance of the double-doublets of the cymene ligand after 29 h (rt, Supplementary Figure S3) vs. 5 h (37 °C, Supplementary Figure S2). As reported earlier, dmso molecules are able to bind to the ruthenium(II) center by losing the cymene ligand and changing the structure to an octahedral metal(II) coordination sphere. Thus, an explanation for the new species can be the binding of dmso molecules to the ruthenium(II) center after loss of the cymene ligand representing the new species in the ^1H NMR spectra. To support this hypothesis, the ruthenium(II) complexes were measured under same conditions (rt, 72 h) in CD2Cl2, and it was shown that the compounds are stable under these conditions in the other solvent (see Supplementary Figure S4).
NMR spectra were measured via NMR spectroscopy on Bruker Avance 400 MHz. Substances were solved in dmso-d6 or CD2Cl2 and measured directly at 37 °C or room temperature for 72 h. NS = 128 scans, t = 709 s/2891 s break, 72 measurements.

Fibroblasts = assay: IC50 on non-cancerous cell cultures; type: cell-based; settings: normal primary short-term cell culture
MCF10A = assay: IC50 on non-cancerous cell cultures; type: cell-based; settings: non-cancerous breast epithelial cell line
Keratinocytes = assay: IC50 on non-cancerous cell cultures; type: cell-based; settings: normal primary short-term cell culture

Compound | mean IC50 value on Cisplatin resistant cell lines compared with Cisplatin [1] | IC50 (SKOV3cis) [µM] | RF SKOV3 (resistance factor) (SKOV3cis) | IC50 (SKOV3) [µM] | IC50 (A549) [µM] | IC50 (A2780) [µM] | RF A2780 (resistance factor) (A2780cis) | IC50 (A2780cis) [µM] | disappearance of the double-doublets of the cymene ligand ([2]; dmso, rt) [h] | disappearance of the double-doublets of the cymene ligand ([2]; dmso-d6, 37 °C) [h] | loss of the methine proton signal ([2]; dmso-d6, 37 °C) [h] | IC50 (Fibroblasts) [µM] | IC50 (MCF10A) [µM] | IC50 (Keratinocytes) [µM] | stability determination using NMR spectroscopy ([2]; osmium(II) compounds)
CCSC(=S)C=C([O][Ru][Cl])c1ccccc1.Cc1ccc(C(C)C)cc1 [Ru2, [(η^6-p-cymene)Ru(1-phenyl-3-(ethylthio)-3-thioxo-prop-1-en-1-olate-O,S)Cl]] | lower | 11.1 | 0.7 | 15.7 | 12.2 | 10 | 0.48 | 4.8 | – | – | – | – | – | – | –
CCSC(=S)C=C([O][Ru][Cl])c1cccc(O)c1.Cc1ccc(C(C)C)cc1 [Ru5, [(η^6-p-cymene)Ru(1-(3-hydroxyphenyl)-3-(ethylthio)-3-thioxo-prop-1-en-1-olate-O,S)Cl]] | lower | 9.3 | 0.6 | 15.4 | 11.5 | 44.9 | 0.2 | 8.1 | – | – | – | – | – | – | –
[(n^6-p-cymene)Ru(1-phenyl-3-(methylthio)-3-thioxo-prop-1-en-1-olate-O,S)Cl] [Ru1] | – | 18.4 | 0.5 | 34.7 | 28.8 | 12.8 | 0.75 | 9.6 | 29 | 5 | 7 | – | – | – | –
[(η^6-p-cymene)Os(1-(3-hydroxyphenyl)-3-(ethylthio)-3-thioxo-prop-1-en-1-olate-O,S)Cl] [Os3] | – | 2.3 | 2.1 | 1.1 | 0.7 | 0.4 | 1 | 0.4 | – | – | – | > 100 | 21.3 | 84.5 | no structural changes
[(η^6-p-cymene)Ru(1-(4-butoxyphenyl)-3-(methylthio)-3-thioxo-prop-1-en-1-olate-O,S)] [Ru17] | – | 17.5 | 1 | 17.2 | 15.1 | 14.2 | 0.7 | 9.8 | – | – | – | – | – | – | –
[(η^6-p-cymene)Ru(1-(4-ethoxyphenyl)-3-(methylthio)-3-thioxo-prop-1-en-1-olate-O,S)] [Ru15] | lower | 3.7 | 0.5 | 7.4 | 16.5 | 5.8 | 0.8 | 4.4 | – | – | – | – | – | – | –
[(η^6-p-cymene)Ru(1-(4-methoxyphenyl)-3-(ethylthio)-3-thioxo-prop-1-en-1-olate-O,S)] [Ru12] | – | 12.7 | 0.5 | 24 | 6.9 | 11 | 0.9 | 10.1 | – | – | – | – | – | – | –
[(η^6-p-cymene)Ru(1-(4-methoxyphenyl)-3-(methylthio)-3-thioxo-prop-1-en-1-olate-O,S)] [Ru9] | – | 12.5 | 0.5 | 25.3 | 39.6 | 24.2 | 0.7 | 16.4 | – | – | – | – | – | – | –
